Assay results: US20260258035A1, “FIVE-MEMBERED AND SIX-MEMBERED NITROGEN-CONTAINING COMPOUND, AND INTERMEDIATE, PREPARATION METHOD AND USE THEREOF” (HANGZHOU SYNRX THERAPEUTICS BIOMEDICAL TECHNOLOGY CO., LTD., priority 2022, published 2026)
Values after ≈ are worked out from the molar mass of the structure shown. Read-outs that look alike come from different tables or passages of the source.

Columns and labels:
HCC1806 = experiment: Cell viability assay (CellTiter-Glo); format: cell-based, Human; conditions: Homo sapiens, HCC1806, 168 h, HCC1806, 7 days, CellTiter-Glo; read-out: IC50 (nM) in cell viability assay
PARG = PARG (Homo sapiens, UniProt Q86W56); experiment: Biochemical assay (PARG, TFMU-ADPr substrate); conditions: PARG, TFMU-ADPr substrate
[1] = Solubility assay (FaSSGF / FaSSIF); format: physicochemical; conditions: kinetic from dmso stock, 2 h at 25° C.
Experimental: 1). Preparation of Solutions:
The FaSSGF solution was prepared as follows: • a) preparation of FaSSGF buffer: dissolve 2.0 g of NaCl as the raw material in about 0.9 L of purified water; • b) adjustment of the pH of the buffer: adjust the pH of the buffer to 1.6 with 1N HCL, and replenish the buffer with purified water to the volume of 1 L; and • c) preparation of FaSSGF solution by addition of FaSSGF powder: add 0.06 g of the FaSSGF powder to about 0.5 L of the buffer, stir until the powder was completely dissolved, and make up for the volume (1 L) with the buffer.
The FaSSIF solution was prepared as follows: • a) preparation of FaSSIF buffer: dissolve 0.42 g of NaOH, 3.44 g of anhydrous NaH2PO4, and 6.19 g of NaCl as raw materials in about 0.9 L of purified water; • b) adjustment the pH of the buffer: adjust the pH of the buffer to 6.5 with 1 N NaOH or 1 N HCL, and replenish the buffer with purified water to the volume of 1 L; and • c) preparation of FaSSIF solution by addition of FaSSIF powder: add 2.24 g of the FaSSIF powder to about 0.5 L of the buffer, stir until the powder was completely dissolved, and make up for the volume (1 L) with the buffer.
2). Preparation of the Solution of Control Compound:
The control compound was weighed and dissolved in DMSO to 10 mM to obtain a stock solution.
3) Preparation of the Solution of Compound to be Tested:
The compound to be tested was formulated into a 10 mM DMSO stock solution.
4) Preparation of Internal Standard Solution:
a) The internal standard was weighed and dissolved in DMSO to 10 mM to obtain an internal standard stock solution (ISTD stock solution).
b) The internal standard stock solution was diluted to 500 nM (Tolbutamide) with an ACN:methano mixture (volume ratio: 1:1) to obtain a quenching solution.
a) The FaSSGF solution at pH 1.6 and the FaSSIF solution at pH 6.5 were pre-warmed; and then, the compound was injected into the buffer.
Once done, the samples were centrifuged at 12,000 rpm for 10 min, and the supernatant was transferred to a new tube. The supernatant was diluted 10-fold and 100-fold with the FaSSGF solution at pH 1.6 or the FaSSIIF solution at pH 6.5. 20 μL of each sample (1×, 10×, 100× and standard curve) was added to 500 μL of the IS solution. The resulting mixture was vortexed vigorously for 1 min and centrifuged at 4,500 rpm for 15 min at 4° C. 150 μL of the supernatant was transferred for LC-MS/MS sample analysis.

PXR = target: T1, PXR (Homo sapiens, UniProt O75469); experiment: PXR assay (DPX2 luciferase reporter cells); format: cell-based; conditions: 24 h; for PXR Activation @30 uM (% Ctrl): positive control rifampicin
T1 construct: host or cells: DPX2 (HepG2)
T1 sequence (O75469 1-434): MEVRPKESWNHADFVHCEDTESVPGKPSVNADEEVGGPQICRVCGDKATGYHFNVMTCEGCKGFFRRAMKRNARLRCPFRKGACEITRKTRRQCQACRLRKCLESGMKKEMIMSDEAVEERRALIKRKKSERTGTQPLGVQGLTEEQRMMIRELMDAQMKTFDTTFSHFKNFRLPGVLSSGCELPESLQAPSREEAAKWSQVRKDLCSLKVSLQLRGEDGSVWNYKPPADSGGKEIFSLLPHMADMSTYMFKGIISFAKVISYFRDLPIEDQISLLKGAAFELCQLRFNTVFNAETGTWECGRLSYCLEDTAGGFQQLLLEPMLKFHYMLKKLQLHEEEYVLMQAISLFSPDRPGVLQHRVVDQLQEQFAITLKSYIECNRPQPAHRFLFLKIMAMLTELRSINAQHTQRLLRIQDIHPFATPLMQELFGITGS
Experimental: 1) Information of Cell Line
DPX2 (HepG2 cells stably transfected with PXR and luciferase reporter) cells were purchased from Puracyp Inc (Carlsbad, CA).
2) Experimental Procedures a) Reagents and Consumables
The DPX2 cells were cultured in the growth medium containing 1000 fetal bovine serum. The DPX2 cells in a T-75 flask were cultured in the […] incubator at 37° C. with 950% relative humidity, and digested when the cells grew to cover 80-90% of the bottom of the flask.
The surface layer of the T-75 cultured cells was washed with 10 mL of PBS; PBS was pipetted; 3-5 mL of tryp sin was added; the cells were digested at 37° C. for 5 minutes or until the cells were digested to be suspended; and excessive medium containing fetal bovine serum was added to stop trypsinization. The cell suspension was transferred to a conical-bottomed centrifuge tube and centrifuged at 150 g rpm for 5 minutes at room temperature; the supernatant was carefully pipetted; and the cells were resuspended with the treatment medium, with the concentration adjusted to 3.2×10^5 cells/mL (incubation time: 24 hours, plate seeding density: […]). 25 μL of the cell suspension was added to each well of the 384-well cell culture plate.
The cell culture plate was placed and cultured for 24 h in the […] incubator with 9500 humidity at 37° C. c) Formulation of Compound
The stock solution of each of 1000× test compound, the positive control (rifampicin), and the negative control (propranolol) was prepared with DMSO. The final concentrations of the positive control (rifampicin) were 1 μM and 10 μM, and the final concentration of the negative control (propranolol) was 10 μM. The final concentrations of the test compound were 10 μM, 1 μM, 0.1 μM, or EC50 (30 μM, 10 μM, 3 μM, 1 μM, 0.3 μM, 0.1 μM). The final concentration of DMSO was 0.10. The cell culture plate was taken out from the incubator, and 25 nL of the stock solution of the positive control, negative control or test compound was directly added with Echo, each with three parallel concentrations. The cell culture plate was placed in the incubator and continued to be incubated for 24 h. Before starting the assay with the substrate, the cell morphology and the monolayer integrity were checked to ensure that the monolayer was of acceptable research quality. […]
d) Quantitative Detection with PXR Activation
After 24 hours of dosing, the culture could be quantitatively detected with PXR activation. The CellTiter-Fluor™ Cell Viability Assay Kit and One-Glo Luciferase reagent were equilibrated to room temperature. The GF-AFC substrate (10 μL) was added to the assay buffer (10 ml) to develop a 2× reagent, which was then diluted into a 1× reagent with 10 ml of PBS. The ONE-Glo Luciferase substrate was added to the ONE-Glo Luciferase assay buffer. The culture plate was taken out from the incubator; the medium was discarded; 1× of CellTiter-Fluor™ reagent was poured into the loading slot; 25 μL of reagent were added per well to the culture plate with a pipetting workstation; and the culture plate was then incubated in the incubator for 30 minutes. The cell culture plate was taken out from the incubator, and cooled slightly to room temperature; and the fluorescence value was determined with a fully automatic quantitative microplate reader, with the excitation light of 400 nm and the emission light of 505 nm. The ONE-Glo reagent was poured into the loading slot, with 25 μL per well, and the resulting mixture was gently mixed in the plate, and incubated at room temperature for 5 minutes to determine the luminescence value.

[2] = fassgf or other biorelevant, FaSSGF solution pH 1.6, 100 μM from DMSO stock, read-out: FaSSGF solubility
[3] = FaSSIF solution pH 6.5, 100 μM from DMSO stock, read-out: FaSSIF solubility

Sequence of PARG (Q86W56 whole entry): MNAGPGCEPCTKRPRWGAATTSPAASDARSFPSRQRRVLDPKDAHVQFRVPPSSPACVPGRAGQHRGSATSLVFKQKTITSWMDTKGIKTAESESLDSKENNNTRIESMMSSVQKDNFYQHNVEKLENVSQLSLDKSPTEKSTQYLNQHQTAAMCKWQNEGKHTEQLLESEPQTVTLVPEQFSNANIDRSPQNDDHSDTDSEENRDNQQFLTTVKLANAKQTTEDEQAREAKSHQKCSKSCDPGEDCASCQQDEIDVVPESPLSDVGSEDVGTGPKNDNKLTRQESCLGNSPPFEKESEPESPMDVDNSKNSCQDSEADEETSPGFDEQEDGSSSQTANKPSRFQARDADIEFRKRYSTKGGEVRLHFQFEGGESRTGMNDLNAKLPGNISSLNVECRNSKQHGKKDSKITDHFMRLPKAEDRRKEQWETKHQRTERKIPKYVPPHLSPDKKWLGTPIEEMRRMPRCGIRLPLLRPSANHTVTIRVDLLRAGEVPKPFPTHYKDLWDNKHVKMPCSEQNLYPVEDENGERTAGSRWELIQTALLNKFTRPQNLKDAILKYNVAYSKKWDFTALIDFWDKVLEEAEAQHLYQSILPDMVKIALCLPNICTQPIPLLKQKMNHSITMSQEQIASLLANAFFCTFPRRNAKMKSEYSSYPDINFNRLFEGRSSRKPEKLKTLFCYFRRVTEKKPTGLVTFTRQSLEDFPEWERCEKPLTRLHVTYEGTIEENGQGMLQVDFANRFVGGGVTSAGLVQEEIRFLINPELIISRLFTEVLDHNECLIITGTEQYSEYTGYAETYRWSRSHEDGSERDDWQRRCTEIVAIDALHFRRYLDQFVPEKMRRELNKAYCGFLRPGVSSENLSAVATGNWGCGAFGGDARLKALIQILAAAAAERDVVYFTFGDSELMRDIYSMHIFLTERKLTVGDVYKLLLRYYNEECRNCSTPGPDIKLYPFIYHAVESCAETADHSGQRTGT

Structure (SMILES)	IC50 (HCC1806)	IC50 (PARG)	solubility at 2 h [1, 2]	solubility at 2 h [1, 3]	PXR Activation @30 uM (Fold) (PXR)	PXR Activation @30 uM (% Ctrl) (PXR)
CC(C)C(=O)N1CCN(c2cc(S(=O)(=O)NC3(C)COC3)cn3c(-c4nnc(C(F)F)s4)nc(Cl)c23)C[C@H]1C [Example 124, (R)-1-chloro-3-(5-(difluoromethyl)-1,3,4-thiadiazol-2-yl)-8-(4-isobutyryl-3-methylpiperazin-1-yl)-N-(3-methyloxetan-3-yl)imidazo[1,5-a]pyridine-6-sulfonamide]	759 nM	2.54 nM	38.5 µM (≈ 23.3 µg/mL)	88.2 µM (≈ 53.3 µg/mL)		
CC1(NS(=O)(=O)c2cc(N3CCN(C(=O)C4CC4)CC3)c3cnc(-c4nnc(C(F)(F)F)s4)n3c2)COC1 [Example 175, 8-(4-(cyclopropanecarbonyl)piperazin-1-yl)-N-(3-methyloxetan-3-yl)-3-(5-(trifluoromethyl)-1,3,4-thiadiazol-2-yl)imidazo[1,5-a]pyridine-6-sulfonamide]	565 nM	18.2 nM	21.5 µM (≈ 12.3 µg/mL)	97.2 µM (≈ 55.6 µg/mL)		
CN(C)C(=O)N1CCN(c2cc(S(=O)(=O)NC3(C#N)CC3)cn3c(-c4nnc(C(F)(F)F)s4)ncc23)CC1 [Example 227, 4-(6-(N-(1-cyanocyclopropyl)sulfamoyl)-3-(5-(trifluoromethyl)-1,3,4-thiadiazol-2-yl)imidazo[1,5-a]pyridin-8-yl)-N,N-dimethylpiperazine-1-carboxamide]	300 nM	5.01 nM	73.8 µM (≈ 42 µg/mL)	82.4 µM (≈ 46.9 µg/mL)		
CN1CC[C@@H]1C(=O)N1CCN(c2cc(S(=O)(=O)NC3(C)CC3)cn3c(-c4nnc(C(F)(F)F)s4)ncc23)CC1 [Example 287, (R)-8-(4-(1-methylazetidine-2-carbonyl)piperazin-1-yl)-N-(1-methylcyclopropyl)-3-(5-(trifluoromethyl)-1,3,4-thiadiazol-2-yl)imidazo[1,5-a]pyridine-6-sulfonamide]	137 nM	4.37 nM			1.6 Fold	15 % Ctrl
CC1(C(=O)N2CCN(c3cc(S(=O)(=O)NC4(C#N)CC4)cn4c(-c5nnc(C(F)(F)F)s5)ncc34)CC2)CCCO1 (stereo not drawn) [Example 298, N-(1-cyanocyclopropyl)-8-(4-(2-methyltetrahydrofuran-2-carbonyl)piperazin-1-yl)-3-(5-(trifluoromethyl)-1,3,4-thiadiazol-2-yl)imidazo[1,5-a]pyridine-6-sulfonamide]	175 nM	19.1 nM	> 100 µM	97.7 µM (≈ 59.7 µg/mL)		
COC1(C(=O)N2CCN(c3cc(S(=O)(=O)NC4(C)CC4)cn4c(-c5nnc(C(F)F)s5)ncc34)CC2)CNC1 [Example 311, 3-(5-(difluoromethyl)-1,3,4-thiadiazol-2-yl)-8-(4-(3-methoxyazetidine-3-carbonyl)piperazin-1-yl)-N-(1-methylcyclopropyl)imidazo[1,5-a]pyridine-6-sulfonamide]	234 nM	0.21 nM			1.1 Fold	5 % Ctrl
CC1(NS(=O)(=O)c2cc(N3CCN(C(=O)[C@H]4CCCN4)CC3)c3cnc(-c4nnc(C(F)(F)F)s4)n3c2)CC1 [Example 324, (R)-N-(1-methylcyclopropyl)-8-(4-prolylpiperazin-1-yl)-3-(5-(trifluoromethyl)-1,3,4-thiadiazol-2-yl)imidazo[1,5-a]pyridine-6-sulfonamide]	205 nM	4.29 nM			1.8 Fold	14 % Ctrl
CN1CCC1(C)C(=O)N1CCN(c2cc(S(=O)(=O)NC3(C)CC3)cn3c(-c4nnc(C(F)(F)F)s4)ncc23)CC1 (stereo not drawn) [Example 330, 8-(4-(1,2-dimethylazetidine-2-carbonyl)piperazin-1-yl)-N-(1-methylcyclopropyl)-3-(5-(trifluoromethyl)-1,3,4-thiadiazol-2-yl)imidazo[1,5-a]pyridine-6-sulfonamide]	194 nM	6.55 nM			1.3 Fold	9 % Ctrl
CC1(NS(=O)(=O)c2cc(N3CCN(c4ccc[nH]c4=O)CC3)c3cnc(-c4nnc(C(F)(F)F)s4)n3c2)CC1 [Example 336, N-(1-methylcyclopropyl)-8-(4-(2-oxo-1,2-dihydropyridin-3-yl)piperazin-1-yl)-3-(5-(trifluoromethyl)-1,3,4-thiadiazol-2-yl)imidazo[1,5-a]pyridine-6-sulfonamide]	1080 nM	54.1 nM			0.3 Fold	2 % Ctrl
